{
  "source": "patent US4113850A",
  "about": "“Composition for the diagnostic visualization of neoplastic tissues” (Solco Basel AG, priority 1974, dated 1978)",
  "key": {"[1]": {"conditions": "cited from earlier work; for Ray dose for the person examined: radiopharmaceuticals used up to now"}, "[2]": {"test_system": "neoplastic tissues (tumors and metastases)", "conditions": "radiopharmaceuticals used up to now; cited from earlier work"}, "[3]": {"test_system": "brain tumor", "conditions": "cited from earlier work"}, "[4]": {"test_system": "brain tumor", "conditions": "literature sources 1-2 of Table 2, cited from earlier work"}, "[5]": {"conditions": "in vivo, cited from earlier work"}, "[6]": {"experiment": "Stability of the complexes", "assay_type": "physicochemical", "conditions": "in solution"}},
  "note": "Where “and” joins values, the source holds several entries; their conditions need not be identical. Equal entries are not always repeated. Where two headings read alike, the source gives them in different places.",
  "data": [
    {"compound": "O=[75Se]([O-])[O-].[Na+].[Na+]", "note": "[^75 Se-sodium selenite]", "values": [
      {"measurement": "Ray dose for the person examined", "setting": "[1]", "value": "high ray dose"},
      {"measurement": "Tumor affinity", "setting": "[2]", "value": "low and uncertain tumor affinity"}
    ]},
    {"compound": "O=C([O-])CC(O)(CC(=O)[O-])C(=O)[O-].[67Ga+3]", "note": "[^67 Gallium citrate]", "values": [
      {"measurement": "Ray dose for the person examined", "setting": "[1]", "value": "high ray dose"},
      {"measurement": "Tumor affinity", "setting": "[2]", "value": "low and uncertain tumor affinity"}
    ]},
    {"compound": "[O]=[99Tc](=[O])(=[O])[O-]", "note": "[Example 99mTcO4, ^99m Tc-pertechnetate]", "values": [
      {"measurement": "Human external tumor brain quotient (in vivo)", "setting": "[3]; literature sources 1-6 of Table 1, listed as 99mTcO.sbsb.4", "value": "1.7 : 1 and 1.3 : 1 and 1.2 - 2.5 : 1"},
      {"measurement": "Human internal tumor brain quotient (after autopsy or on an operation preparation)", "setting": "[4]", "value": "1.8 - 5.3 : 1"},
      {"measurement": "Human internal tumor brain quotient (after autopsy or on an operation preparation)", "setting": "[4]; listed as 99mTcO", "value": "0 - 4.3 : 1"},
      {"measurement": "Ray dose of the critical organs: Blood", "setting": "[1]; Blood, hitherto used substances", "value": "17 - 47 mrad/mCurie"},
      {"measurement": "Ray dose of the critical organs: Colon", "setting": "[1]; Colon, hitherto used substances", "value": "150 - 290 mrad/mCurie"},
      {"measurement": "Ray dose of the critical organs: Stomach", "setting": "[1]; Stomach, hitherto used substances", "value": "40 - 320 mrad/mCurie"},
      {"measurement": "Ray dose of the critical organs: Thyroid", "setting": "[1]; Thyroid, hitherto used substances", "value": "100 - 270 mrad/mCurie"},
      {"measurement": "Concentration in organs", "setting": "[5]; listed as 99m Tc-pertechnetate", "value": "particularly high concentrations occur in the thyroid but also in the plexus chorioideus (brain), in the salivary glands and in the gastric mucosa"},
      {"measurement": "Concentration in organs", "setting": "[5]; listed as pertechnetate", "value": "concentrates above all in the thyroid"}
    ]},
    {"compound": "COC([CH2][197Hg+])CNC(N)=O.[Cl-]", "note": "(stereo not drawn) [197Hg-Chlormerodrin, ^197 Hg-chlormerodrin]", "values": [
      {"measurement": "Human external tumor brain quotient (in vivo)", "setting": "[3]; literature sources 1-6 of Table 1", "value": "1.2 - 8.7 : 1 and 1.2 - 3.1 : 1"},
      {"measurement": "Ray dose of the critical organs: Kidney", "setting": "[1]; Kidney, hitherto used substances", "value": "4370 - 19400 mrad/mCurie"},
      {"measurement": "Ray dose for the person examined", "setting": "[1]", "value": "high ray dose"},
      {"measurement": "Tumor affinity", "setting": "[2]", "value": "low and uncertain tumor affinity"}
    ]},
    {"compound": "COC(CNC(N)=O)[CH2][203Hg][Cl]", "note": "(stereo not drawn) [^203 Hg-chlormerodrin]", "values": [
      {"measurement": "Ray dose for the person examined", "setting": "[1]", "value": "high ray dose"},
      {"measurement": "Tumor affinity", "setting": "[2]", "value": "low and uncertain tumor affinity"}
    ]},
    {"compound": "^111 indium-citrate complex [Example 7]", "values": [
      {"measurement": "Stability of complex", "setting": "[6]", "value": "stable"}
    ]},
    {"compound": "tin-technetium-isocitrate complex [Example 1]", "values": [
      {"measurement": "Stability of complex", "setting": "[6]", "value": "stable"}
    ]}
  ]
}
